We go through 1 compound from patent publication US20210140962A1, “COMPOUND AND METHOD OF MEASURING INTESTINAL PERMEABILITY AND LEAKY GUT” (priority 2017, published 2021).

For data set [1] the following is noted: aqueous solution about 2.5 mM; comprised of materials verified as being non-toxic by the FDA; cited from earlier work.
Data set [2] relates to intestinal permeability. Conditions: rodent model with gradual deterioration of insulin sensitivity and eventual onset of diabetes; oral gavage; change over time (FIG. 5).
Experimental: 100 μg of non-radioactive Cr-EDTA in aqueous solution was administered to C57BL/6 mice and Wistar rats by oral gavage. A urine sample from the animals was then collected 6-10 hours after administration.
The urine sample taken from the animal was incubated with strongly acidic cation exchange resin wherein the active group is nuclear sulfonic acid, e.g., 33% by volume slurry of DOWEX-50-H+® cation exchange resin equilibrated with distilled water at room temperature.
Naturally occurring background Cr ions in the urine were correspondingly bound to the resin. […] The samples were then centrifuged, with the supernatant containing the fraction of administered Cr-EDTA that crossed the intestinal barrier.
The supernatant was injected directly into a Gas Furnace Atomic Absorption Spectroscope (GFAAS) using a graphite tube. The GFAAS apparatus had been calibrated to yield the concentration of Cr in each sample.

Regarding `O=C(O)CN(CCN(CC(=O)O)CC(=O)O)CC(=O)O.[Cr]` [Cr-EDTA, chromium EDTA complex], the toxicity result in data set [1] was “non-toxic”. In addition, the “ratio of Cr to creatinine in urine samples” value in data set [2] is “measurable increase”.
